Series [1] can be described thus: refractive index (Na D-line) (dimensionless). Particulars: 298.15 K; 101.33 kPa; Liquid; Standard Abbe refractometry.
The conditions of series [2]: Liquid; for mass density: 101.33 kPa, Pycnometric method; for vapor or sublimation pressure: Ebulliometric method (Recirculating still).

The text below walks through data of the NIST ThermoML archive (doi:10.1021/acs.jced.7b00377).

SMILES strings stand for the structures. Numbers after ± are expanded uncertainties.

For orientation: refractive index means a measure of how strongly the sample bends light. The term mass density denotes mass per unit of volume. In general, vapor or sublimation pressure refers to the pressure of vapour in equilibrium with the condensed phase. Regarding `CC(C)CO` [2-methyl-1-propanol], the refractive index in series [1] was 1.3939 ± 0.0004. The mass density in series [2] (293.15 K) was determined as 801.8 ± 0.6 kg/m3. Also, the “vapor or sublimation pressure” value in series [2] (381.08 K) stood at 101.33 ± 0.7 kPa.
Turning to `CCCCO` [butan-1-ol], in series [1], the refractive index was 1.3971 ± 0.0004. For the same molecule, the mass density in series [2] (298.15 K) is reported as 809.5 ± 0.6 kg/m3. Moreover, in series [2] (390.9 K), the “vapor or sublimation pressure” value turned out to be 101.33 ± 0.7 kPa.
On to `CCOCOCC(C)C` [1-(ethoxymethoxy)-2-methylpropane], for which the refractive index in series [1] was 1.3873 ± 0.0004. In addition, the mass density in series [2] (298.15 K) is reported as 823.8 ± 0.6 kg/m3. The “vapor or sublimation pressure” value in series [2] (320.54 K) came to 5 ± 0.05 kPa; in series [2] (335.1 K), 10 ± 0.06 kPa; in series [2] (344.53 K), 15 ± 0.09 kPa; in series [2] (351.76 K) it was 20.02 ± 0.12 kPa; in series [2] (359.38 K), 26.67 ± 0.17 kPa; in series [2] (370.93 K), 39.9 ± 0.23 kPa. The “vapor or sublimation pressure” value in series [2] (379.83 K) came out at 53.33 ± 0.3 kPa; in series [2] (386.16 K), 64.8 ± 0.37 kPa; in series [2] (393.18 K) it was 79.6 ± 0.44 kPa; in series [2] (397.46 K) it was 89.9 ± 0.5 kPa; in series [2] (401.87 K), 101.33 ± 0.55 kPa; in series [2] (405.77 K), 112 ± 0.61 kPa. Besides, the “vapor or sublimation pressure” value in series [2] (410.02 K) is 125 ± 0.67 kPa.
